Numbering of substitutions follows the chain as printed.
Legend:
Assay type in all cases: cell-based
Settings in all cases: 100 µM chanoclavine, read-out: Inhibition Percentage (%)
[1] = biological target: T1, 5-HT3A receptor R196A mutant (Homo sapiens, UniProt P46098, R191A); test: two-electrode voltage clamp, R196A mutant receptor in Xenopus oocytes
T1 construct: host or cells: Xenopus laevis oocytes injected with in vitro transcribed mRNA
T1 sequence (P46098 24-478 R191A): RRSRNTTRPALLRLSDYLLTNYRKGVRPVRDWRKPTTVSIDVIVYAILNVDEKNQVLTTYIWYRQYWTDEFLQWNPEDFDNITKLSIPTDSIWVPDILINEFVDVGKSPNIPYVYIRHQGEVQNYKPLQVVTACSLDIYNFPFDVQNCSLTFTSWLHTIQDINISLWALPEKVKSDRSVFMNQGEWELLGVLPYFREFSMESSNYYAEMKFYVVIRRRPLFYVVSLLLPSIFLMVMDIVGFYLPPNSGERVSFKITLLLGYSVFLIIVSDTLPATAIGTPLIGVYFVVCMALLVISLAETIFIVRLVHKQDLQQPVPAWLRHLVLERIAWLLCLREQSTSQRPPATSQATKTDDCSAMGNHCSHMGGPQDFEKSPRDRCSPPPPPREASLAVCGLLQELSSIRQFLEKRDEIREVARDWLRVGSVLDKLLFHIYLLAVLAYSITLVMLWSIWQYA
Description: (§1) The site-directed mutation of one or two amino acids was performed using sense and antisense primers and Pfu polymerase (QuickChange Site-Directed Mutagenesis Kit; Agilent, Santa Clara, CA, USA) and amplified by polymerase chain reaction (PCR) to increase the target domain. After removing the existing methylated cDNA using Dpn Ⅰ, the PCR products were transformed into Escherichia coli strain DH5α. The cDNA of the 5-HT3A receptor was linearized by Xho Ⅰ at the end of the multi-cloning site, followed by transcription using T7 polymerase and a transcription kit (mMESSAGE mMACHINE T7 Transcription Kit; Thermo Fisher Scientific, Waltham, MA, USA). […]
(§2) To isolate oocytes, female Xenopus laevis were put into a container filled with ice and left for about one hour. […] When the Xenopus oocytes were ready for injection, 50 ng of mRNA was injected with a nanoliter injector (Drummond Scientific, Vernon Hills, IL, USA). […]
(§3) The oocytes in which mRNA was expressed during the incubation period allowed for the estimation of channel or receptor properties for observing drug and ligand potential interactions using a two-electrode voltage clamp (OC-725C; Warner Instruments, Hamden, CT, USA) and Digidata (1322A; Molecular Devices, Sunnyvale, CA, USA). […] The voltage and current electrodes were filled with 3 M KCl (0.3–0.7 MΩ) and analyzed at a −80 mV holding potential. […]

[2] = biological target: T2, 5-HT3A receptor I139A mutant (Homo sapiens, UniProt P46098, I134A/I139A); test: two-electrode voltage clamp, I139A mutant receptor in Xenopus oocytes
T2 construct: host or cells: Xenopus laevis oocytes injected with in vitro transcribed mRNA
T2 sequence (P46098 24-478 I134A/I139A): T1 sequence (P46098 24-478 R191A) with I111A, I116A, A168R
Description: as §1, §2, §3

[3] = biological target: T3, 5-HT3A receptor R92A mutant (Homo sapiens, UniProt P46098, R87A); test: two-electrode voltage clamp, R92A mutant receptor in Xenopus oocytes
T3 construct: host or cells: Xenopus laevis oocytes injected with in vitro transcribed mRNA
T3 sequence (P46098 24-478 R87A): T1 sequence (P46098 24-478 R191A) with R64A, A168R
Description: as §1, §2, §3

CN[C@@H]1Cc2c[nH]c3cccc(c23)[C@H]1/C=C(\C)CO [chanoclavine]
inhibition at 100 µM [1]: 82.1 ± 2.5% | inhibition at 100 µM [2]: 92.8 ± 4.9% | inhibition at 100 µM [3]: 95.45 ± 0.3%

Source: PMC7956620 (Molecules, 2021)
